Test results: patent US20230265098A1, “ALKYNE QUINAZOLINE DERIVATIVES AS INHIBITORS OF ERBB2” (EnLiven Therapeutics, Inc., priority 2020, published 2023)

Columns and labels:
[1] = target: T1, phosphorylated ERBB2 (pERBB2) (Homo sapiens, UniProt P04626); experiment: Detection of phosphorylated ERBB2 (pERBB2) by ELISA in BT-474 cells; assay type: cell-based; conditions: four hours incubation with compound, OD 450 nm
T1 construct: endogenous in cells; host or cells: BT-474
Method in brief: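 BT-474 cells were treated for 4 h at 37 °C with four-fold compound dilutions from 10 μM to 0.01 nM final, then lysed. Phospho-ERBB2 in the lysates was measured by ELISA with TMB read-out at 450 nm. Relative activity was normalised between cell-free wells and 0.1% DMSO-treated cells.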

[2] = target: T2, Ba/F3 ERBB2 wt (Homo sapiens, UniProt P04626); experiment: Cell viability assay (CellTiter Glo); assay type: cell-based, mouse; conditions: 72 hours; 3000 cells per well, 96-well plates; read-out: Cell viability IC50, nM, Ba/F3 ERBB2 wt
T2 construct: Ba/F3 cell lines were engineered to express human ERBB2 or EGFR kinases, rendering the cells IL-3 independent
Method in brief: (§1)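 Murine Ba/F3 cells made IL-3-independent by retroviral human EGFR or ERBB2 were seeded at 3000 or 300 cells per well and exposed to serially diluted compound (DMSO ≤0.1%) for 72 hours at 37° C, 5% CO2. CellTiter Glo luminescence was normalised to DMSO and media-only controls and fitted to a sigmoidal dose-response.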

[3] = target: T3, Ba/F3 ERBB2-L755S (Homo sapiens, UniProt P04626, L755S, cells depend on it); experiment: Cell viability assay (CellTiter Glo); assay type: cell-based, mouse; conditions: 72 hours; 3000 cells per well, 96-well plates; read-out: Cell viability IC50, nM, Ba/F3 ERBB2-L755S
T3 construct: Ba/F3 cell lines were engineered to express human ERBB2 or EGFR kinases, rendering the cells IL-3 independent
Method in brief: as §1

[4] = target: T4, Ba/F3 ERBB2-V777L (Homo sapiens, UniProt P04626, V777L, cells depend on it); experiment: Cell viability assay (CellTiter Glo); assay type: cell-based, mouse; conditions: 72 hours; 3000 cells per well, 96-well plates; read-out: Cell viability IC50, nM, Ba/F3 ERBB2-V777L
T4 construct: Ba/F3 cell lines were engineered to express human ERBB2 or EGFR kinases, rendering the cells IL-3 independent
Method in brief: as §1

[5] = target: T5, Ba/F3 ERBB2-T798M (Homo sapiens, UniProt P04626, T798M, cells depend on it); experiment: Cell viability assay (CellTiter Glo); assay type: cell-based, mouse; conditions: 72 hours; 3000 cells per well, 96-well plates; read-out: Cell viability IC50, nM, Ba/F3 ERBB2-T798M
T5 construct: Ba/F3 cell lines were engineered to express human ERBB2 or EGFR kinases, rendering the cells IL-3 independent
Method in brief: as §1

[6] = target: T6, Ba/F3 ERBB2 A775_G776insYVMA (Homo sapiens, UniProt P04626, DUP772-775, cells depend on it); experiment: Cell viability assay (CellTiter Glo); assay type: cell-based, mouse; conditions: 72 hours; 3000 cells per well, 96-well plates (Tables B3-B4); read-out: Cell viability IC50, nM, Ba/F3 ERBB2 A775_G776insYVMA
T6 construct: Ba/F3 cell lines were engineered to express human ERBB2 or EGFR kinases, rendering the cells IL-3 independent
T6 sequence (P04626 with tags, fused parts or gaps DUP772-775): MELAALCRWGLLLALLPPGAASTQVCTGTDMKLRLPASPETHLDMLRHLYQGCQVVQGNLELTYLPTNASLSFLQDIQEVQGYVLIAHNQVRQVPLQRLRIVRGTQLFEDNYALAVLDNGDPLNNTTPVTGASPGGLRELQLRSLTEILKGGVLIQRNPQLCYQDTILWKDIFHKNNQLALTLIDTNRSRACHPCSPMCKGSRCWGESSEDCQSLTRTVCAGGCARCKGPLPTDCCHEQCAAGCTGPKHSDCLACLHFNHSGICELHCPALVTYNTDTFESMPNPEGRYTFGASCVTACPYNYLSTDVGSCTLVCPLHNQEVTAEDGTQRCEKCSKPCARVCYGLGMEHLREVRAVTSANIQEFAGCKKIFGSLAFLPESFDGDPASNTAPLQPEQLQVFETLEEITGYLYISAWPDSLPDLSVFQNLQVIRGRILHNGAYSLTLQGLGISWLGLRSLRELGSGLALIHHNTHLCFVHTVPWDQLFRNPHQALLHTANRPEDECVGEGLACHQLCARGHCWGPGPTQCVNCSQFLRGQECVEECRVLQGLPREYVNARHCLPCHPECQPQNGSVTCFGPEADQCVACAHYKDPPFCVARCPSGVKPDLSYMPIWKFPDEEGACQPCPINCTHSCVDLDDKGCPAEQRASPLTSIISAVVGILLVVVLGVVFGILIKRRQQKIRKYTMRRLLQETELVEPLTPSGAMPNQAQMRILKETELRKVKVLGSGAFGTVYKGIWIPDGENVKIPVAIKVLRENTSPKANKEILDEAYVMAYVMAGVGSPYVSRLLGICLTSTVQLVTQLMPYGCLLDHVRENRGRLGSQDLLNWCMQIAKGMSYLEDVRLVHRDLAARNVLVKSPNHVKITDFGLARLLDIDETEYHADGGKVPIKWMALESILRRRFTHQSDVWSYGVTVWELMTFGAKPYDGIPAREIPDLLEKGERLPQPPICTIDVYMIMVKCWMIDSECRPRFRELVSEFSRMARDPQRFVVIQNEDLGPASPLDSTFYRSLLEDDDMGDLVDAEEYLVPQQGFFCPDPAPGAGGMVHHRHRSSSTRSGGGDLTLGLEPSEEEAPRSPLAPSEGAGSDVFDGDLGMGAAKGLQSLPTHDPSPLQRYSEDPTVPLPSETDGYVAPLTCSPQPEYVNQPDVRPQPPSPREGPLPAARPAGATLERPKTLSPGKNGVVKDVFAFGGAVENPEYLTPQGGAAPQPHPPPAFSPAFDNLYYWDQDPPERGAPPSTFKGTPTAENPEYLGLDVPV
Method in brief: as §1

[7] = target: T7, Ba/F3 ERBB2-G776VC (Homo sapiens, UniProt P04626, DELINS776-776VC, cells depend on it); experiment: Cell viability assay (CellTiter Glo); assay type: cell-based, mouse; conditions: 72 hours; 3000 cells per well, 96-well plates; read-out: Cell viability IC50, nM, Ba/F3 ERBB2-G776VC
T7 construct: Ba/F3 cell lines were engineered to express human ERBB2 or EGFR kinases, rendering the cells IL-3 independent
T7 sequence (P04626 with tags, fused parts or gaps DELINS776-776VC): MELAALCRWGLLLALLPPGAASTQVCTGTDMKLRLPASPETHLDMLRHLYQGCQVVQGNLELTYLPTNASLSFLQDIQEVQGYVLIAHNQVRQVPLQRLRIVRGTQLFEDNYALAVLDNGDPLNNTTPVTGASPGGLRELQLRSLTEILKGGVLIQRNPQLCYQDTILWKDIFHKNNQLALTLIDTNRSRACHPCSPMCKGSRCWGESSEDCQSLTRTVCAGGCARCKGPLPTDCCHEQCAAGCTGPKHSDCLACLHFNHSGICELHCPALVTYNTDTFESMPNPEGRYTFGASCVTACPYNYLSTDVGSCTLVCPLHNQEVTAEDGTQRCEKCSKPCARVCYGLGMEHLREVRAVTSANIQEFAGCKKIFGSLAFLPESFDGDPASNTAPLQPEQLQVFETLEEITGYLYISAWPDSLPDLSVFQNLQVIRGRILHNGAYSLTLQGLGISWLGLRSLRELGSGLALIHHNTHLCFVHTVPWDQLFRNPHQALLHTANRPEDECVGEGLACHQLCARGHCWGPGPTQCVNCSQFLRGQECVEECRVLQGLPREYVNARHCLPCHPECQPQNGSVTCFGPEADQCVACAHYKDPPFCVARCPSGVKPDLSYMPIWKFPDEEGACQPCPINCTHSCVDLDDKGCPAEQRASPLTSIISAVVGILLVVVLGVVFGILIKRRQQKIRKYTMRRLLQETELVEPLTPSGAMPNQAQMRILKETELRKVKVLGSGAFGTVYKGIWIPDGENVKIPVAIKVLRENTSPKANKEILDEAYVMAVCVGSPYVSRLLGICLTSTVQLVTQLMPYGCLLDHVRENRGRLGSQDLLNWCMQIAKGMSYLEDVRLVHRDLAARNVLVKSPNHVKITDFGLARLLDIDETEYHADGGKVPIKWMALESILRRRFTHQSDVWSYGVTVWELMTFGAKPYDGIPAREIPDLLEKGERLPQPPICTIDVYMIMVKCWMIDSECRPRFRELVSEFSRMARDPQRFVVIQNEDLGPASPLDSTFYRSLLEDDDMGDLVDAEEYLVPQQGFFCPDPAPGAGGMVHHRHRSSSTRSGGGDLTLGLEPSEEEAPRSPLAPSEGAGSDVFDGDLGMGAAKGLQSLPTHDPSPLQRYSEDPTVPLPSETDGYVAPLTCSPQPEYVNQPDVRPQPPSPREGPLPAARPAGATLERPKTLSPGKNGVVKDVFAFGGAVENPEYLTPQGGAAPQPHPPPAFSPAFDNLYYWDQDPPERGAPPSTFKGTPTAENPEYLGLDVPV
Method in brief: as §1

[8] = target: T8, Ba/F3 ERBB2-V777_G778insGC (Homo sapiens, UniProt P04626, INS778CG, cells depend on it); experiment: Cell viability assay (CellTiter Glo); assay type: cell-based, mouse; conditions: 72 hours; 3000 cells per well, 96-well plates; read-out: Cell viability IC50, nM, Ba/F3 ERBB2-V777_G778insGC
T8 construct: Ba/F3 cell lines were engineered to express human ERBB2 or EGFR kinases, rendering the cells IL-3 independent
T8 sequence (P04626 with tags, fused parts or gaps INS778CG): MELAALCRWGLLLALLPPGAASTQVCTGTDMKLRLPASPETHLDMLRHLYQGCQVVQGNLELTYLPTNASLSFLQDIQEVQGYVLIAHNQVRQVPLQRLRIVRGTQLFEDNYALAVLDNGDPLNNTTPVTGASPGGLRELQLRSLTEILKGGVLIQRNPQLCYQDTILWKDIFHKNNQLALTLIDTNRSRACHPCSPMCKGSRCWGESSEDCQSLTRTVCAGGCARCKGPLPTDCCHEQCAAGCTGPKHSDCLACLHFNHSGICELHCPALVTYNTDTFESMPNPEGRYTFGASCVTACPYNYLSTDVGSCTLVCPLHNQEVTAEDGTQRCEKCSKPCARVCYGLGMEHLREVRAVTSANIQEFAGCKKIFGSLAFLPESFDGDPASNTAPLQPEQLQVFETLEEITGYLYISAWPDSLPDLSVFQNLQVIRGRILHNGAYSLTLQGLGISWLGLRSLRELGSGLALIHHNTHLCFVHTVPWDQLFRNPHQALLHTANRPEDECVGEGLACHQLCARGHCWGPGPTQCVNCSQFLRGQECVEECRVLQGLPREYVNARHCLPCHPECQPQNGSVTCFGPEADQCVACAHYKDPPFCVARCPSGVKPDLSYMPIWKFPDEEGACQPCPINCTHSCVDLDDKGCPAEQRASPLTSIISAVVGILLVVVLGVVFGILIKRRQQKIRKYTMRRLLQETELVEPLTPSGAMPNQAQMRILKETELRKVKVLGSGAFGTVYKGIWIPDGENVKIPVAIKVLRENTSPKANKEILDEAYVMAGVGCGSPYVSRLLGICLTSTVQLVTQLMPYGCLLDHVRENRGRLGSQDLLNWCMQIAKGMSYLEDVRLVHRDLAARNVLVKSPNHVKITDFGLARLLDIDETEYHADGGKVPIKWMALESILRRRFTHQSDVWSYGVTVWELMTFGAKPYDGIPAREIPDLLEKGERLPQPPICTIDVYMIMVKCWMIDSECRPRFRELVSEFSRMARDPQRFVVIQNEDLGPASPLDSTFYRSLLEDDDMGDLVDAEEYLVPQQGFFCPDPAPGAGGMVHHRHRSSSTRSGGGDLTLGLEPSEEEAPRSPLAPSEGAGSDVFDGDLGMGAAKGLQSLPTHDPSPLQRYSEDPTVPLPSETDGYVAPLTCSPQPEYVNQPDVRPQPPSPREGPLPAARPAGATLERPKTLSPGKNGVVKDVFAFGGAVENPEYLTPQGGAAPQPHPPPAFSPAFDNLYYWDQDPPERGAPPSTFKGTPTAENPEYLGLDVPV
Method in brief: as §1

[9] = target: T9, Ba/F3 ERBB2-P780_Y781insGSP (Homo sapiens, UniProt P04626, DUP778-780, cells depend on it); experiment: Cell viability assay (CellTiter Glo); assay type: cell-based, mouse; conditions: 72 hours; 3000 cells per well, 96-well plates; read-out: Cell viability IC50, nM, Ba/F3 ERBB2-P780_Y781insGSP
T9 construct: Ba/F3 cell lines were engineered to express human ERBB2 or EGFR kinases, rendering the cells IL-3 independent
T9 sequence (P04626 with tags, fused parts or gaps DUP778-780): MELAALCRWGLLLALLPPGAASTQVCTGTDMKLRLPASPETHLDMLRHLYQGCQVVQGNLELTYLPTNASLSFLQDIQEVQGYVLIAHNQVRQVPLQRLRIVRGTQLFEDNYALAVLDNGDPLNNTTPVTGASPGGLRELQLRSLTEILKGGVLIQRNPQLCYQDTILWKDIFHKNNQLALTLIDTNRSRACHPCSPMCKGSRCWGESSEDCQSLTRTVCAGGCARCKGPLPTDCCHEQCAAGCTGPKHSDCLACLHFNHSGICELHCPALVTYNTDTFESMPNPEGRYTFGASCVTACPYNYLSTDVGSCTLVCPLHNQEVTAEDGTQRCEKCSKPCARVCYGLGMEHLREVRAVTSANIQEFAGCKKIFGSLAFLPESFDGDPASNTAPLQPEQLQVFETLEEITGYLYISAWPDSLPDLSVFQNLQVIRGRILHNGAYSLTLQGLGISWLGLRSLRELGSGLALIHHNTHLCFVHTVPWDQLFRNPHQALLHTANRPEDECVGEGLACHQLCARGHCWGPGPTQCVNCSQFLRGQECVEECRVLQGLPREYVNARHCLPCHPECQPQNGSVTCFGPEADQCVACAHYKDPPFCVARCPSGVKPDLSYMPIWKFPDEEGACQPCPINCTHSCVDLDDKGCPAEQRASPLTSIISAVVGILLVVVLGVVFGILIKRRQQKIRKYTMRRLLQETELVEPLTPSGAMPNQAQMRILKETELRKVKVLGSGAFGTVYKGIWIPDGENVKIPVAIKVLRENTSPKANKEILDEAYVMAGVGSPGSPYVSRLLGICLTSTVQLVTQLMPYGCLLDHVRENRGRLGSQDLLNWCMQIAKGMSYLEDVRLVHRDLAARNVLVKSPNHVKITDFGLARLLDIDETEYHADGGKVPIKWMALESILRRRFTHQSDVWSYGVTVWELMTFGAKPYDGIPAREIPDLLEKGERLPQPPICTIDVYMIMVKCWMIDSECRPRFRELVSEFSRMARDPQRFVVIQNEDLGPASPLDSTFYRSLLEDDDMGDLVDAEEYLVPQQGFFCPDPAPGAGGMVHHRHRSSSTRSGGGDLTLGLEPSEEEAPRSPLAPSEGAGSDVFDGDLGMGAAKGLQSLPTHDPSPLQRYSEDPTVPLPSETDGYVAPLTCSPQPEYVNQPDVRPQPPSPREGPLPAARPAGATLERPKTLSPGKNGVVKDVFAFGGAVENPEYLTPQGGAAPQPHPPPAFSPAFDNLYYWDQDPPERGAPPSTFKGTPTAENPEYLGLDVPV
Experimental: Cells were treated with compounds, and cell viability was measured as a metric of kinase inhibition.
The Ba/F3 cell line is IL-3-dependent mouse cell line derived from the C3H mouse strain. Ba/F3 cell lines were engineered to express human ERBB2 or EGFR kinases, rendering the cells IL-3 independent. The lines were generated via retroviral transduction utilizing a Moloney murine leukemia virus (MMLV) promoter, and constructs are stably integrated into the cell genome.
Similarly, Ba/F3 cell lines engineered to express EGFR, ERBB2, or ERBB2 mutants were grown, harvested, counted and seeded at 3000 cells per well in 96-well plates for the data sets shown in Tables B3-B4, and seeded at 300 cells per well in 384-well plates for the data set shown in Table B5. A subset of wells contained media only (low control, “LC”).
Table B2 provides the growth media and number of cells seeded per well for the each cell line.
Compounds were dissolved in DMSO and serially diluted. Serially-diluted compound or a DMSO only control (high control, “HC”) was added to the plated cells in each well. […] The final proportion of DMSO never exceeded 0.1%.
Plates were placed in a 37° C., 5% CO2 incubator for 72 hours. Plates were then removed from the incubator and equilibrated for 15 minutes at room temperature. 40 IA of CellTiter Glo reagent (Promega) was added to measure the relative level of metabolically active cells by quantifying intracellular ATP concentrations. Plates were incubated for 30 minutes at room temperature, and luminescence was measured. […] Graphical curves were fitted using a nonlinear regression model with a sigmoidal dose response.

With `CC#CC(=O)Nc1ccc2ncnc(Nc3ccc(Oc4ccn5ncnc5c4)c(C)c3)c2c1` [Compound 1, N-[4-[(3-methyl-4-[[1,2,4]triazolo[1,5-a]pyridin-7-yloxy]phenyl)amino]quinazolin-6-yl]but-2-ynamide] as the compound, how does the IC50 [1] read?
The IC50 was 10.3 nM.

What about the GI50 [2] of the same compound?
Its GI50 is 1.5 nM.

What about the GI50 [3] of the same compound?
The GI50 was roughly 1 nM.

And the GI50 [4]?
Its GI50 is less than 1 nM.

What about the GI50 [5] of the same compound?
Its GI50 is 15 nM.

And the GI50 [6]?
The GI50 was 4.4 nM.

And the GI50 [7]?
Its GI50 is 2.6 nM.

And the GI50 [8]?
Its GI50 is less than 1 nM.

And the GI50 [9]?
The GI50 was 0.65 nM.

How did the IC50 [1] turn out when `Cc1cc(Nc2ncnc3ccc(NC4=NC(C)(C)CO4)cc23)ccc1Oc1ccn2ncnc2c1` [Tucatinib, tucatinib, reference compound] was run?
The IC50 was 23.1 nM.

And the GI50 [2]?
Its GI50 is 26.5 nM.

And the GI50 [3]?
Its GI50 is 228 nM.

And the GI50 [4]?
Its GI50 is 11 nM.

And the GI50 [5]?
The GI50 was 1370 nM.

And the GI50 [6]?
The GI50 was 356 nM.

And the GI50 [7]?
The GI50 was 193 nM.

And the GI50 [8]?
The GI50 was 12.5 nM.

What about the GI50 [9] of the same compound?
The GI50 was 25.3 nM.

What does the source list for `CC#CC(=O)Nc1cc2c(Nc3ccc(Oc4ccn5ncnc5c4)c(C)c3)ncnc2cc1OCCN(C)C` [Compound 150, N-[7-[2-(dimethylamino)ethoxy]-4-[(3-methyl-4-[[1,2,4]triazolo[1,5-a]pyridin-7-yloxy]phenyl)amino]quinazolin-6-yl]but-2-ynamide]?
IC50 [1]: 7.05 nM; GI50 [2]: 2.12 nM; GI50 [3]: 11.4 nM; GI50 [4]: 1.73 nM; GI50 [5]: 56.9 nM; GI50 [6]: 8.42 nM; GI50 [7]: 13.6 nM; GI50 [8]: 3.01 nM; GI50 [9]: 2.63 nM
